Results: publication PMC6301270 (MedChemComm, 2018)

Test system: T.b. brucei (strain 427) bloodstream form parasites
Assay: Trypanosoma brucei assay, dose–response (this study)
Format: cell-based
Conditions: Trypanosoma brucei; Table 1, kinetoplastid category; 48 hours at 37 °C, resazurin; read-out: T. brucei brucei IC50 (μM) This study

SMILES | IC50
CC1CCCCN1C(=O)NCCc1coc(-c2ccc(F)cc2)n1 (stereo not shown) [Compound 5, CC1CCCCN1C(=O)NCCc2coc(n2)c3ccc(F)cc3] | 0.05 µM
N=C(N)c1ccc(OCCCCCOc2ccc(C(=N)N)cc2)cc1 [Pentamidine, reference compound] | 0.0031 µM

Test system: HeLa cells
Assay: HeLa cell assay (cytotoxicity)
Format: cell-based
Conditions: Homo sapiens; Table 1; HeLa cells, 48 hours, resazurin; read-out: HeLa IC50
Description: HeLa cells were cultured in DMEM medium supplemented with 10% fetal bovine serum and antibiotics (penicillin/streptomycin/amphotericin B) at 37 °C in a 5% CO2 incubator. On the day prior to compound addition, cells were plated in 96-well plates at 2 × 10^4 cells per well. Compounds were added to the cells in 3-fold serial dilutions and incubation at 37 °C in a 5% CO2 incubator continued for 48 hours. Twenty μl resazurin reagent (0.5 mM resazurin in phosphate-buffered saline) was added to each well and, after a 2-hour incubation, fluorescence (Exc560/Em590) was measured in a plate reader. Percentage cell viability in drug-treated wells was calculated from the fluorescent readings obtained relative to those in wells containing control, untreated cells. Plots of % cell viability vs. log[compound] were used to determine IC50 values by non-linear regression analysis using GraphPad Prism.

SMILES | IC50
CC1CCCCN1C(=O)NCCc1coc(-c2ccc(F)cc2)n1 (stereo not shown) [Compound 5, CC1CCCCN1C(=O)NCCc2coc(n2)c3ccc(F)cc3] | > 25000 nM
CC[C@H]1CN2CCc3cc(OC)c(OC)cc3[C@@H]2C[C@@H]1C[C@H]1NCCc2cc(OC)c(OC)cc21 [Emetine, reference compound] | 400 nM

Test system: T.b. brucei (strain 427) bloodstream form parasites
Assay: T.b. brucei single concentration screen (10 μM)
Conditions: Trypanosoma brucei, read-out: T.b.brucei % viability (10 µM)

SMILES | viability at 10 µM
CC1CCCCN1C(=O)NCCc1coc(-c2ccc(F)cc2)n1 (stereo not shown) [Compound 5, CC1CCCCN1C(=O)NCCc2coc(n2)c3ccc(F)cc3] | 2.2%
O=C(NCc1ccoc1)N1CCN(Cc2ccc3c(c2)OCO3)CC1 [MMV688553, O=C(NCc1cocc1)N2CCN(Cc3ccc4OCOc4c3)CC2] | 98%
CNc1snc(C)c1C(=O)NCCOc1ccc(OC)cc1 [MMV688554, CNc1snc(C)c1C(=O)NCCOc2ccc(OC)cc2] | 92%
O=C(NCc1ccco1)N1CCN(Cc2ccc(Cl)s2)CC1 [MMV688555, Clc1ccc(CN2CCN(CC2)C(=O)NCc3occc3)s1] | 103%
NCC(c1cccs1)S(=O)(=O)c1ccccc1 (stereo not shown) [MMV688557, NCC(c1cccs1)S(=O)(=O)c2ccccc2] | 99%
CN1CCC(c2cc(-c3ccncc3)c(-c3ccc(F)cc3)[nH]2)CC1 [MMV688703, CN1CCC(CC1)c1cc(c([nH]1)-c1ccc(F)cc1)-c1ccncc1] | 68%
Cc1cc2nc(NC(=O)C(C)(C)C)nc(Cl)c2n1Cc1ccc(Cl)cc1 [MMV688704, Cc1cc2nc(NC(=O)C(C)(C)C)nc(Cl)c2n1Cc1ccc(Cl)cc1] | 88%
CO/N=C(\C(=O)OC)c1ccccc1CO/N=C(\C)c1cccc(C(F)(F)F)c1 [MMV688754, CO\N=C(/C(=O)OC)\c1ccccc1CO\N=C(/C)\c2cccc(c2)C(F)(F)F] | 100%
O=[N+]([O-])c1cn2c(n1)OC[C@@H](OCc1ccc(OC(F)(F)F)cc1)C2 [MMV688755, [O-][N+](=O)c1cn2C[C@@H](COc2n1)OCc3ccc(OC(F)(F)F)cc3] | 95%
CC(=O)NC[C@H]1CN(c2ccc(N3CCSCC3)c(F)c2)C(=O)O1 [MMV688756, CC(=O)NC[C@H]1CN(C(=O)O1)c2ccc(N3CCSCC3)c(F)c2] | 106%
c1ccc(-c2[nH]c3ccccc3c2C(c2ccccn2)N2CCCC2)cc1 (stereo not shown) [MMV688762, C1CCN(C1)C(c2ccccn2)c3c([nH]c4ccccc34)c5ccccc5] | 108%
CNc1nnc(Sc2cnn(-c3ccccc3)c(=O)c2Cl)s1 [MMV688763, CNc1nnc(SC2=C(Cl)C(=O)N(N=C2)c3ccccc3)s1] | 49%
COc1ccc(-c2onc(C(F)(F)F)c2-c2ccc(Cl)cc2)c(O)c1 [MMV688766, COc1ccc(c(O)c1)c2onc(c2c3ccc(Cl)cc3)C(F)(F)F] | 88%
Cc1ccccc1C(=O)N1N=C(Nc2ccccc2)SC1(C)C [MMV688771, Cc1ccccc1C(=O)N2N=C(Nc3ccccc3)SC2(C)C] | 97%
O=C(N[C@H](Cc1ccccc1)C(=O)Nc1ccccc1N1CCOCC1)c1cccs1 [MMV688845, O=C(Nc1ccccc1N2CCOCC2)[C@@H](Cc3ccccc3)NC(=O)c4cccs4] | 94%
Cc1ccccc1CN1CCC(O)(c2ccc(Cl)c(C(F)(F)F)c2)CC1 [MMV688846, Cc1ccccc1CN2CCC(O)(CC2)c3ccc(Cl)c(c3)C(F)(F)F] | 98%
CC(C)(C)n1nc(Cc2ccc(F)c(Cl)c2)c2c(N)ncnc21 [MMV688852, CC(C)(C)n1nc(Cc2ccc(F)c(Cl)c2)c2c(N)ncnc12] | 87%
CCOc1ccc2cc(-c3nn(C(C)(C)C)c(N)c3C(N)=O)cnc2c1 [MMV688853, CCOc1ccc2cc(cnc2c1)c3nn(c(N)c3C(=O)N)C(C)(C)C] | 99%
CCOc1ccc2cc(-c3nn(CC4CCN(C)CC4)c4ncnc(N)c34)ccc2c1 [MMV688854, CCOc1ccc2cc(ccc2c1)c3nn(CC4CCN(C)CC4)c5ncnc(N)c35] | 33%
CN1CCN(c2cc(-c3ccc(F)cc3)nc(-c3ccncc3)n2)CC1 [MMV688888, CN1CCN(CC1)c2cc(nc(n2)c3ccncc3)c4ccc(F)cc4] | 92%
Clc1ccc(CCNc2cc(-c3ccccc3)nc3ncnn23)cc1 [MMV688889, Clc1ccc(CCNc2cc(nc3ncnn23)c4ccccc4)cc1] | 74%
COc1cc(Br)cc2cc(C(=O)Nc3cccc(C(F)(F)F)c3)c(=O)oc12 [MMV688891, COc1cc(Br)cc2C=C(C(=O)Nc3cccc(c3)C(F)(F)F)C(=O)Oc12] | 96%
OC[C@H]1O[C@@H](n2c3ccc(Cl)cc3c3c(-c4cc5ccccc5o4)ncnc32)C(O)[C@H]1O (stereo partly shown) [MMV688921, OC[C@H]1O[C@H](C(O)[C@H]1O)n2c3ccc(Cl)cc3c4c(ncnc24)c5oc6ccccc6c5] | 97%
CCc1nn(C)c(C(=O)NCc2ccc(Oc3ccc(C)cc3)cc2)c1Cl [MMV688934, CCc1nn(C)c(C(=O)NCc2ccc(Oc3ccc(C)cc3)cc2)c1Cl] | 101%

SMILES | viability at 10 µM
O=C(c1ccco1)N(CCCn1ccnc1)c1nc2c(Cl)cccc2s1 [MMV688936, Clc1cccc2sc(nc12)N(CCCn3ccnc3)C(=O)c4occc4] | 92%
CCOc1ccc(-c2nc(CNCCc3ccc(F)cc3)cs2)cc1 [MMV688938, CCOc1ccc(cc1)c2nc(CNCCc3ccc(F)cc3)cs2] | 63%
Cc1ccc2nc(C)c(-c3ccn(Cc4ccccc4)n3)n2c1 [MMV688939, Cc1ccc2nc(C)c(c3ccn(Cc4ccccc4)n3)n2c1] | 101%
COc1cc(CN2CCC3(C=Cc4ccccc43)CC2)cc2c1OCO2 [MMV688941, COc1cc(CN2CCC3(CC2)C=Cc4ccccc34)cc5OCOc15] | 114%
CC(C)(C)C(O)C(Oc1ccc(-c2ccccc2)cc1)n1cncn1 (stereo not shown) [MMV688942, CC(C)(C)C(O)C(Oc1ccc(cc1)c2ccccc2)n3cncn3] | 79%
CC1COC(Cn2cncn2)(c2ccc(Oc3ccc(Cl)cc3)cc2Cl)O1 (stereo not shown) [MMV688943, CC1COC(Cn2cncn2)(O1)c3ccc(Oc4ccc(Cl)cc4)cc3Cl] | 100%
Cc1cc(NC(=O)c2ccc(Oc3ccc(Cl)cc3O)o2)no1 [MMV688955, Cc1cc(NC(=O)c2ccc(Oc3ccc(Cl)cc3O)o2)no1] | 88%
CCc1cc(=O)n(C)c(SC(C)C(=O)Nc2ccc(F)cc2)n1 (stereo not shown) [MMV688980, CCC1=CC(=O)N(C)C(=N1)SC(C)C(=O)Nc2ccc(F)cc2] | 101%
Clc1ccc(CN2CCN(C3=NCCN3)CC2)cc1Cl [MMV689060, Clc1ccc(CN2CCN(CC2)C3=NCCN3)cc1Cl] | 101%
CC(=O)Nc1ccc(-c2noc(CC3CCCN(Cc4cccc(F)c4C)C3)n2)cc1 (stereo not shown) [MMV689061, CC1=C(F)C=CC=C1CN2CCCC(CC3=NC(C4=CC=C(NC(C)=O)C=C4)=NO3)C2] | 92%
FC(F)(F)c1ccc(N(c2cccnc2)C2CCN(c3ccc(C(F)(F)F)cn3)CC2)cc1 [MMV689243, FC(F)(F)c1ccc(cc1)N(C2CCN(CC2)c3ccc(cn3)C(F)(F)F)c4cccnc4] | 103%
O=C([C@@H](c1ccc(Cl)cc1)c1cccnc1)N1CCN(c2ccc(C(F)(F)F)cc2)CC1 [MMV689244, FC(F)(F)c1ccc(cc1)N2CCN(CC2)C(=O)[C@@H](c3ccc(Cl)cc3)c4cccnc4] | 108%
Nc1ncnc2c1ncn2C[C@@H](O)[C@@H](O)C(=O)O [MMV689255, Nc1ncnc2c1ncn2C[C@@H](O)[C@@H](O)C(=O)O] | 111%
CC(c1cc(Cl)cc(Cl)c1)N(C)c1ncc2c(N)nc(N)nc2n1 (stereo not shown) [MMV689437, CC(N(C)c1ncc2c(N)nc(N)nc2n1)c3cc(Cl)cc(Cl)c3] | 98%
CNc1cc(C)nc(C2CN(C(=O)c3n[nH]c4ccccc34)CCO2)c1 (stereo not shown) [MMV689709, O=C(N1CC(C2=CC(NC)=CC(C)=N2)OCC1)C3=NNC4=C3C=CC=C4] | 87%
COc1ccc(Oc2ccc([C@@H](C)N(C)c3ncc4c(N)nc(N)nc4n3)cc2)cc1 [MMV690102, COc1ccc(Oc2ccc(cc2)[C@@H](C)N(C)c3ncc4c(N)nc(N)nc4n3)cc1] | 42%
C[C@H](c1ccc2c(c1)CCCC2)N(C)c1ncc2c(N)nc(N)nc2n1 [MMV690103, C[C@@H](N(C)c1ncc2c(N)nc(N)nc2n1)c3ccc4CCCCc4c3] | 26%
CCc1ccc(C(NCc2nc(N)nc(N(C)C)n2)C(C)C)cc1 (stereo not shown) [MMV1019989, CCc1ccc(cc1)C(NCc2nc(N)nc(n2)N(C)C)C(C)C] | 92%
O=C(Nc1nc(-c2ccccn2)cs1)C1CC1c1ccccc1F (stereo not shown) [MMV1028806, Fc1ccccc1C2CC2C(=O)Nc3nc(cs3)c4ccccn4] | 63%
CNC(=O)CNc1nc(-c2ccccn2)nc2scc(-c3ccccc3)c12 [MMV1029203, CNC(=O)CNc1nc(nc2scc(c3ccccc3)c12)c4ccccn4] | 98%
CCNC(=O)C(C)Nc1nc(-c2cccnc2)nc2sc(C)c(C)c12 (stereo not shown) [MMV1037162, CCNC(=O)C(C)Nc1nc(nc2sc(C)c(C)c12)c3cccnc3] | 85%
Cc1ccc(-c2nc(CN(Cc3ccccn3)C(C)C)cs2)o1 [MMV1088520, CC(C)N(Cc1ccccn1)Cc2csc(n2)c3oc(C)cc3] | 72%
COc1cccn2c(C(=O)N3CCCCC3)c(C(F)(F)F)nc12 [MMV1110498, FC(F)(F)C1=C(C(N2CCCCC2)=O)N(C=CC=C3OC)C3=N1] | 99%
Cc1cc(OCC(=O)Nc2ccc(C(C)C)cc2)n(C)c(=O)c1C#N [MMV1198433, CC(C)c1ccc(NC(=O)COC2=CC(=C(C#N)C(=O)N2C)C)cc1] | 70%
